Entries after “also recorded” stand apart in the source; their conditions may differ.
Tests used:
[1] = Solubility in supercritical carbon dioxide; assay type: physicochemical; settings: supercritical carbon dioxide as antisolvent
[2] = solid state, relative to Forms II and III; cited from earlier work

solubility in supercritical carbon dioxide [1] | Structure (SMILES) | thermodynamic stability / transformation to other polymorphic forms [2]
practically insoluble | Cc1cn([C@H]2C=C[C@@H](CO)O2)c(=O)[nH]c1=O [Stavudine, 2′, 3′-didehydro-3′-deoxythymidine] | 
 | Cc1cn([C@H]2C=C[C@@H](CO)O2)c(=O)[nH]c1=O [Form I, 2′, 3′-didehydro-3′-deoxythymidine] | stable and shows no transformations to other polymorphic forms; also recorded: most thermodynamically stable form, with no tendency for solid state conversion to the other Forms

From patent US20030225279A1, “Stavudine Polymorphic Form 1 process” (priority 2000, published 2003)
